Measured values published in ChEMBL document CHEMBL5331077, “Combining pharmacophore models derived from DNA-encoded chemical libraries with structure-based exploration to predict Tankyrase 1 inhibitors” (Eur J Med Chem, 2023).
Activity calls are given as the source filed them. No cut-off for these calls is given here.

Legend:
[1] = target: T1, Protein mono-ADP-ribosyltransferase PARP10 (Homo sapiens) (UniProt Q53GL7); experiment: Inhibition of PARP10 (unknown origin)
T1 sequence (whole entry): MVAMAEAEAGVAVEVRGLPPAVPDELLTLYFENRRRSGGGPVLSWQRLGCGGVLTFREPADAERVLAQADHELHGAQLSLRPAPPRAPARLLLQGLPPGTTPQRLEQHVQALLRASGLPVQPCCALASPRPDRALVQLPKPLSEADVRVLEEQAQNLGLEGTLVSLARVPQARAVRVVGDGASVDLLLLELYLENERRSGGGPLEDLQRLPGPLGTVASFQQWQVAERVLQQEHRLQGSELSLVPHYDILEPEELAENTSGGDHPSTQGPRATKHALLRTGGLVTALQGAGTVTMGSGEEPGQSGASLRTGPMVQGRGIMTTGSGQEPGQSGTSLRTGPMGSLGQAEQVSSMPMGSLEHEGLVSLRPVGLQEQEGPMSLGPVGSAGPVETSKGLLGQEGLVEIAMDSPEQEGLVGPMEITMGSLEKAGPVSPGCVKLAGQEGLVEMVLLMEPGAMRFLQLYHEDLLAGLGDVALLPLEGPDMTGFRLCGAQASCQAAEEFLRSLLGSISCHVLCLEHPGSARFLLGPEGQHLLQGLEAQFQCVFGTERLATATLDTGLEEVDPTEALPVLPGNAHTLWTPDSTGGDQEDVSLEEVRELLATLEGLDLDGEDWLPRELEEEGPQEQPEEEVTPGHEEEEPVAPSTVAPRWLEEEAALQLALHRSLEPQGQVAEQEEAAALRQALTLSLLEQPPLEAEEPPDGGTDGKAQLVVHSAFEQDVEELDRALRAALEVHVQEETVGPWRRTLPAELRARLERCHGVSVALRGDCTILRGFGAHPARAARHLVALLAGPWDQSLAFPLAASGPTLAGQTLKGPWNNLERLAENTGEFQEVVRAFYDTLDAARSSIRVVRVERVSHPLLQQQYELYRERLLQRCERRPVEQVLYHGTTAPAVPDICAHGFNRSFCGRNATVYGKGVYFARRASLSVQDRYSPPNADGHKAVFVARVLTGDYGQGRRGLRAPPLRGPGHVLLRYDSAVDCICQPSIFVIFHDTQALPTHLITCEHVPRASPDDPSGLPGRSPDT

[2] = target: T2, Poly [ADP-ribose] polymerase tankyrase-1 (Homo sapiens, UniProt O95271); experiment: Inhibition of TNKS1 (unknown origin) using biotinylated NAD as substrate preincubated for 30 mins followed by substrate addition and measured after 1 hr by BioTek synergy 2 microplate reader analysis
T2 sequence (O95271 whole entry): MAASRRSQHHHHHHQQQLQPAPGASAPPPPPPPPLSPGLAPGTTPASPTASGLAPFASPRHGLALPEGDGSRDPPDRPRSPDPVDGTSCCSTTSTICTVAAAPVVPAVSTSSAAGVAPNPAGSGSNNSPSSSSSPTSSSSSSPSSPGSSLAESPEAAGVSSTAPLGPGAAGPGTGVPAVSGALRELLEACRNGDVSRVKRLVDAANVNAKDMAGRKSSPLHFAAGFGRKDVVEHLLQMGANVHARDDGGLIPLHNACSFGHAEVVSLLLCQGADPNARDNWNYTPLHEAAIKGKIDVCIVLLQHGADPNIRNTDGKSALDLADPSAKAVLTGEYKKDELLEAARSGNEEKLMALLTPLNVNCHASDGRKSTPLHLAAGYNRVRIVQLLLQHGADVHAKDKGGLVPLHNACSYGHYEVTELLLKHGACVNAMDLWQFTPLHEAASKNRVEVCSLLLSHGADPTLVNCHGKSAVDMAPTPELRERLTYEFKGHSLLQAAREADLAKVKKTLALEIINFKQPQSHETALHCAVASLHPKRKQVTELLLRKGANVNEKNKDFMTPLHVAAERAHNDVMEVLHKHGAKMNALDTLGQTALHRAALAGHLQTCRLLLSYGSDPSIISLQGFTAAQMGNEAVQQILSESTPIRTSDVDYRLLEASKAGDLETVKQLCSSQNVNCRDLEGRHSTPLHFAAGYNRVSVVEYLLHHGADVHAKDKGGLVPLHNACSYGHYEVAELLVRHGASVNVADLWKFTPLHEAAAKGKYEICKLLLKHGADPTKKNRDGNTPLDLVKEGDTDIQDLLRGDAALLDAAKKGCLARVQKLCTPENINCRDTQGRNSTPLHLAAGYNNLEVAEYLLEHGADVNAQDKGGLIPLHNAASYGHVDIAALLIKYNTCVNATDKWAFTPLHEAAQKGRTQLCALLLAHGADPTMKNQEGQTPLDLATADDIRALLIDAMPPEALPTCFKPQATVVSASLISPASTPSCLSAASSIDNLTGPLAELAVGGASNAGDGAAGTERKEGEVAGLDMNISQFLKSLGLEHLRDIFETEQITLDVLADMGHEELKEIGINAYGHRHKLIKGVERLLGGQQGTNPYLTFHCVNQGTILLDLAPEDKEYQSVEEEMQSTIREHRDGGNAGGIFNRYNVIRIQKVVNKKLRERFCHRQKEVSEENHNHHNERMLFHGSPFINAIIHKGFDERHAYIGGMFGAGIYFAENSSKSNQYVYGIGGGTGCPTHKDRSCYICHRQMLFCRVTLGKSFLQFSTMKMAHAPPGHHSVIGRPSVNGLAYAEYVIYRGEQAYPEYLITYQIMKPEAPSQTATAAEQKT

[3] = target: T3, Protein mono-ADP-ribosyltransferase PARP12 (Homo sapiens) (UniProt Q9H0J9); experiment: Inhibition of PARP12 (unknown origin)
T3 sequence (whole entry): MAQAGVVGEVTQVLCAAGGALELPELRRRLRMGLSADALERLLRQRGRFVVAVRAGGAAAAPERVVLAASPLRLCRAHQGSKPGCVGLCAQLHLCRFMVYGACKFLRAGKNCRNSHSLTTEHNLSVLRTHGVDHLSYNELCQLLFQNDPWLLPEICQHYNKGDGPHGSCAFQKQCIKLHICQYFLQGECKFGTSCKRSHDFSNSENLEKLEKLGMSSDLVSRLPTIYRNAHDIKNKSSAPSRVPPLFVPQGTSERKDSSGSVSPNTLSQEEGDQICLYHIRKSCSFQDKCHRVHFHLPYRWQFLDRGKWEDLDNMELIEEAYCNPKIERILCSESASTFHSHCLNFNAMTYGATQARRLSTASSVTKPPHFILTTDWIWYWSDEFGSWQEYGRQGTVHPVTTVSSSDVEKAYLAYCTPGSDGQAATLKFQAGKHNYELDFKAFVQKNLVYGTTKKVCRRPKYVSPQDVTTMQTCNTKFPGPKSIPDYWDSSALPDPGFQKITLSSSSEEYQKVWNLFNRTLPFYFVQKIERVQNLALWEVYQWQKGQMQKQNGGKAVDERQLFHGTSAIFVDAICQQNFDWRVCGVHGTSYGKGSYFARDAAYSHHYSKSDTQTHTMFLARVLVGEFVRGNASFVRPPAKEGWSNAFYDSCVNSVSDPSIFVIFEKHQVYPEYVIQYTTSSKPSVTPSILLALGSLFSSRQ

Compound	inhibition [1]	IC50 [2] [nM]	inhibition [3]
CNC(=O)[C@H](CNC(=O)CCn1c(=O)[nH]c(=O)c2ccccc21)NC(=O)c1cnc2ccccc2c1	inactive	0.8	inactive
Cc1cc(OCC(=O)NCCNC(=O)c2cccc(COc3ccccc3C(N)=O)c2)c2c3c(c(=O)oc2c1)CCC3	Active	2	inactive
